# “And” between values parts separate entries of the source, which are not always exact repeats. Identical values can stand only once. “Also recorded” adds a separate entry of the source. Like-named read-outs stand apart in the source and are kept apart here.
# Legend:
# Sprague-Dawley rats [1] = experiment: Effect on analgesia produced by a single spinal dose of morphine (tail flick and paw pressure tests); assay type: in vivo, rat
# Sprague-Dawley rats [2] = experiment: Acute tolerance to spinal morphine: three successive intrathecal injections at 90 minute intervals, cumulative morphine dose-response curves 24 hours later (tail flick and paw pressure tests); assay type: in vivo, rat; conditions: for development of acute tolerance to morphine: ultra-low dose administration, intrathecal
# Sprague-Dawley rats [3] = experiment: Chronic tolerance to spinal morphine: daily intrathecal injection for 5 days, cumulative dose-response curves on day 6 (tail flick and paw pressure tests); assay type: in vivo, rat
# Sprague-Dawley rats [4] = experiment: Reversal of pre-existing morphine analgesic tolerance by ultra-low dose atipemazole (tail flick and paw pressure tests)
# spinal alpha-2 receptors = assay type: in vivo, rat
# mouse = conditions: in vivo; cited from earlier work
# mice = conditions: cited from earlier work
# [5] = group receiving repeated morphine injections (15 μg x 3) vs saline-treated control
# [6] = saline-treated control group, cumulative intrathecal dose-response curve 24 hours after treatment
# [7] = group receiving chronic morphine alone (15 μg for 10 days)
# [8] = group receiving morphine (15 μg for 10 days) with atipemazole 0.8 ng from day 6 for 5 days
# [9] = mirtazapine 2 μg with clonidine 13.3 μg intrathecal
# [10] = mirtazapine 0.02 ng co-injection with morphine 15 μg x 3
# [11] = mirtazapine 0.02 ng with morphine 15 μg x 3
# [12] = single mirtazapine exposure 0.02 ng 30 minutes prior to repeated morphine
# [13] = idazoxan 0.08 ng with morphine 15 μg intrathecal
# [14] = idazoxan ultra-low doses (0.008, 0.016, 0.08 ng) with morphine 15 μg x 3
smiles,measurement,setting,value
CN1CC[C@]23c4c5ccc(O)c4O[C@H]2[C@@H](O)C=C[C@H]3[C@H]1C5 [morphine],time of peak analgesia after a single dose of morphine,"Sprague-Dawley rats [1]; morphine 15 μg intrathecal, tail flick and paw pressure tests",30 min
same,"decline of the analgesic effect of morphine observed after the first injection, at the end of the 240 minute test period",Sprague-Dawley rats [2]; 3 successive doses of morphine 15 μg intrathecal at 90 minute intervals,~80%
same,"increase in morphine ED50, paw pressure test",Sprague-Dawley rats [2]; [5],4 fold
same,"increase in morphine ED50, tail flick test",Sprague-Dawley rats [2]; [5],~5 fold
same,cumulative morphine dose-response curve 24 hours after repeated morphine injections,"Sprague-Dawley rats [2]; morphine 15 μg x 3 at 90 minute intervals, relative to saline treatment",shifted to the right; also recorded: parallel right shift
same,"ED50 value of morphine, paw pressure test",Sprague-Dawley rats [2]; [6],~7 µg and ~8 µg
same,"ED50 value of morphine, tail flick test",Sprague-Dawley rats [2]; [6],~5 µg
same,"increase in morphine ED50 values, both tests",Sprague-Dawley rats [3]; chronic treatment with morphine 15 μg/day for 5 days,~8 fold
same,ED50 values for morphine in the control group,"Sprague-Dawley rats [3]; group that had received atipemazole alone (0.8 ng/day) for 5 days, day 6, tail flick and paw pressure tests",approximately 5 μg
same,time course of analgesic response on day 5,Sprague-Dawley rats [3]; morphine 15 μg alone at conclusion of chronic treatment,drastically reduced
same,analgesic response to morphine on day 1,"Sprague-Dawley rats [3]; morphine 15 μg intrathecal, 30 minutes after administration",maximal level
same,"effect of morphine at 60 minutes post injection, both tests",Sprague-Dawley rats [3]; morphine 15 μg/day alone,very much reduced
same,cumulative morphine dose-response curve on day 6 after chronic morphine treatment,Sprague-Dawley rats [3]; morphine 15 μg/day for 5 days,rightward shift
same,magnitude of morphine effect with daily drug administration,"Sprague-Dawley rats [3]; morphine 15 μg/day intrathecal for 5 days, 30 minutes after administration",progressively declined towards baseline value by day 5
same,"morphine ED50, paw pressure test",Sprague-Dawley rats [4]; [7],~48 µg
same,"morphine ED50, tail flick test",Sprague-Dawley rats [4]; [7],~47 µg
same,"morphine ED50, paw pressure test",Sprague-Dawley rats [4]; [8],~8 µg
same,"morphine ED50, tail flick test",Sprague-Dawley rats [4]; [8],~6 µg
same,acute morphine dose-response curve relative to morphine and atipemazole group,"Sprague-Dawley rats [4]; morphine 15 μg alone for 10 days, day 11",displaced to the right
CN1CCN2c3ncccc3Cc3ccccc3C2C1 (centres unmarked) [mirtazapine],"effect on clonidine analgesia, paw pressure test",spinal alpha-2 receptors; 10 μg with clonidine 13.3 μg intrathecal (FIG. 28B),almost abolished
same,"effect on clonidine analgesia, paw pressure test",spinal alpha-2 receptors; [9],almost abolished
same,"effect on peak clonidine analgesia, tail flick test",spinal alpha-2 receptors; [9],decreased significantly
same,"effect on peak morphine analgesia, tail flick test",Sprague-Dawley rats [1]; mirtazapine 0.2 ng with morphine 15 μg intrathecal,reduced the peak morphine analgesia
same,"effect on morphine analgesia, paw pressure test",Sprague-Dawley rats [1]; mirtazapine 0.02 and 0.2 ng with morphine 15 μg intrathecal,significantly extended morphine analgesia
same,"effect on duration of morphine analgesia, tail flick test","Sprague-Dawley rats [1]; mirtazapine 0.02 and 0.2 ng with morphine 15 μg intrathecal, particularly at 0.02 ng",extended morphine analgesia
same,"effect on the increase in morphine ED50, paw pressure test",Sprague-Dawley rats [2]; [10],completely prevented the increase in ED50
same,"effect on the increase in morphine ED50, tail flick test",Sprague-Dawley rats [2]; [10],partially prevented the increase in ED50
same,"effect on peak morphine analgesia, tail flick test",Sprague-Dawley rats [2]; [11],reduced the peak morphine analgesia
same,"effect on the decline of morphine analgesia, paw pressure test",Sprague-Dawley rats [2]; [11],arrested the decline of the analgesic effect
same,"effect on the decline of morphine analgesia, tail flick test",Sprague-Dawley rats [2]; [11],less effective at arresting the decline
same,"effect on the shift of the morphine dose-response curve, paw pressure test",Sprague-Dawley rats [2]; [11],prevented the rightward shift
same,"morphine dose-response curves of morphine and morphine-mirtazapine groups, tail flick test",Sprague-Dawley rats [2]; [11],showed an overlap at upper dose range of the opioid agonist
same,"prevention of the right shift of the morphine dose response curve, paw pressure vs tail flick test",Sprague-Dawley rats [2]; single mirtazapine dose 0.02 ng 30 minutes prior to morphine 15 μg x 3,more effective in the paw pressure test at preventing the right shift
same,"effect on the increase in morphine ED50, paw pressure test",Sprague-Dawley rats [2]; [12],completely prevented the increase in ED50
same,"effect on the increase in morphine ED50, tail flick test",Sprague-Dawley rats [2]; [12],partially prevented the increase in ED50
same,development of acute tolerance to morphine,Sprague-Dawley rats [2],very effectively inhibit
Clc1cccc(Cl)c1N=C1NCCN1 [clonidine],"analgesic response to clonidine, paw pressure test","spinal alpha-2 receptors; rat, in vivo",lesser effect
same,"analgesic response to clonidine, tail flick test","spinal alpha-2 receptors; rat, in vivo",maximal analgesic response
C=CCN1CC[C@]23c4c5ccc(O)c4O[C@H]2C(=O)CC[C@@]3(O)[C@H]1C5 [naloxone],effect on alpha-2 receptor agonist analgesia,mouse,does not affect
c1ccc2c(c1)OCC(C1=NCCN1)O2 (centres unmarked) [idazoxan],"effect on peak clonidine analgesia, tail flick test",spinal alpha-2 receptors; idazoxan 10 μg with clonidine 13.3 μg intrathecal,decreased significantly
same,"effect on morphine analgesia, both tail flick and paw pressure tests",Sprague-Dawley rats [1]; [13],significantly extended morphine analgesia
same,"effect on peak morphine analgesia, paw pressure test",Sprague-Dawley rats [1]; [13],augmented peak morphine analgesia
same,"effect on the shift of the morphine dose-response curve, both tail flick and paw pressure tests","Sprague-Dawley rats [2]; idazoxan 0.008 ng, 0.016 ng with morphine 15 μg x 3",prevented the rightward shift
same,"effect on the increase in morphine ED50, both tail flick and paw pressure tests","Sprague-Dawley rats [2]; idazoxan 0.008, 0.016 and 0.08 ng co-injection with morphine 15 μg x 3",prevented the increase in ED50
same,analgesic response to repeated administration alone,"Sprague-Dawley rats [2]; idazoxan alone at 0.008 and 0.016 ng, injected at 90 minute intervals",no significant analgesic response
same,"effect on peak morphine analgesia, tail flick test",Sprague-Dawley rats [2]; idazoxan lowest dose 0.008 ng with morphine 15 μg x 3,reduced the peak morphine analgesia
same,"effect on the decline of morphine analgesia, paw pressure test",Sprague-Dawley rats [2]; [14],arrested the decline of the analgesic effect
same,"effect on the decline of morphine analgesia, tail flick test",Sprague-Dawley rats [2]; [14],less effective at arresting the decline
same,development of acute tolerance to morphine,Sprague-Dawley rats [2],very effectively inhibit
COc1cc2nc(N3CCN(C(=O)c4ccco4)CC3)nc(N)c2cc1OC [prazoin],development of tolerance to morphine analgesia,mice,suppress the development of tolerance
Cc1ccc(N(CC2=NCCN2)c2cccc(O)c2)cc1 [phentolamine],development of tolerance to morphine analgesia,mice,suppress the development of tolerance
COCCc1ccc(OCC(O)CNC(C)C)cc1 (centres unmarked) [metoprolol],development of tolerance to morphine analgesia,mice,suppress the development of tolerance
CC(C)NCC(O)COc1cccc2ccccc12 (centres unmarked) [propranolol],development of tolerance to morphine analgesia,mice,suppress the development of tolerance

# — patent US20070060501A1 (priority 2005, published 2007)
